Laboratory results published in article PMC4827027, “Fungal naphtho-γ-pyrones: Potent antibiotics for drug-resistant microbial pathogens” (Scientific Reports, 2016).
Values after ≈ are worked out from the molar mass of the structure shown.

What was measured:
[1] = system: P. aeruginosa (ATCC 27853); assay: Broth microdilution MIC, P. aeruginosa ATCC 27853; conditions: Pseudomonas aeruginosa, ATCC27853, 24 h, read-out: Minimum inhibitory concentrations, P. aeruginosa ATCC 27853
[2] = system: ESBL-producing E. coli (ATCC 35218); assay: Broth microdilution MIC, ESBL-producing E. coli ATCC 35218; conditions: Escherichia coli, ATCC35218, 24 h, read-out: Minimum inhibitory concentrations, E. coli ATCC 35218
E. coli ATCC 25922 = assay: Broth microdilution MIC, E. coli ATCC 25922; conditions: for MIC: Escherichia coli, ATCC25922, 24 h, read-out: Minimum inhibitory concentrations, E. coli ATCC 25922
E. faecalis (ATCC 29212) = assay: Broth microdilution MIC, E. faecalis ATCC 29212; conditions: Enterococcus faecalis, ATCC29212, 24 h, read-out: Minimum inhibitory concentrations, E. faecalis ATCC 29212
E. coli FabI [3] = biological target: T1, E. coli FabI (Escherichia coli, UniProt P0AEK4); assay: Microscale thermophoresis (MST) binding to FabI; conditions: for Dissociation constant with E. coli FabI, Kd: MST, means ± SD for three experiments, n.i. is no clear binding detected in the MST measurement
T1 sequence (P0AEK4 whole entry): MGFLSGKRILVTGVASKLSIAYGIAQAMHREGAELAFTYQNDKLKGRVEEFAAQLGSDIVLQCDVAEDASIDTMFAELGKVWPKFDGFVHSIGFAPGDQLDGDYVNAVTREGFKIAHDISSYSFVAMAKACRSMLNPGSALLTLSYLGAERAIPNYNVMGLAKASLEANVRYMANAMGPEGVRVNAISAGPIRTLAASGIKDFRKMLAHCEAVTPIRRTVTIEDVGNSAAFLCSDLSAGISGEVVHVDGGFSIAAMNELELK

[4] = system: MRSA (S. aureus ATCC 43300); assay: Broth microdilution MIC, MRSA ATCC 43300; conditions: for MIC: Staphylococcus aureus, ATCC43300|MRSA, 24 h, read-out: Minimum inhibitory concentrations, S. aureus ATCC 43300
E. coli FabI [5] = biological target: T1, E. coli FabI; assay: FabI inhibition IC50 assay (crotonoyl-CoA/NADH); conditions: for Inhibitory activities against E. coli FabI, IC50: 50 μM crotonoyl-CoA, 100 μM NADH, n.i. is no inhibition detected (IC50 > 1 mM)
[6] = system: K. pneumoniae (ATCC 700603); assay: Broth microdilution MIC, K. pneumoniae ATCC 700603; conditions: for MIC: Klebsiella pneumoniae, ATCC700603, 24 h, read-out: Minimum inhibitory concentrations, K. pneumoniae ATCC 700603

SMILES | MIC [1] [µg/mL] | MIC [2] [µg/mL] | Antibacterial activity against E. coli (in words) (E. coli ATCC 25922) | MIC (E. coli ATCC 25922) [µg/mL] | MIC (E. faecalis (ATCC 29212)) [µg/mL] | Kd (E. coli FabI [3]) [µM] | Antibacterial activity against S. aureus (in words) [4] | MIC [4] [µg/mL] | IC50 (E. coli FabI [5]) [µM] | Inhibition of K. pneumonia (in words) [6] | MIC [6] [µg/mL] | Dissociation constant with E. coli FabI, Kd (E. coli FabI [3]) | Inhibitory activities against E. coli FabI, IC50 (E. coli FabI [5])
COc1cc(OC)c2c(O)c3c(=O)cc(C)oc3c(-c3c(OC)cc4cc(O)c5c(=O)cc(C)oc5c4c3OC)c2c1 [Compound 2, Fonsecinone A] | 17 (≈ 29.9 µM) | 4.26 (≈ 7.47 µM) | moderate antibacterial activities | 2.13 (≈ 3.73 µM) | 4.26 (≈ 7.47 µM) | 215 ± 28.8 | moderate antibacterial activities | 34.1 (≈ 59.7 µM) | 2.7 | no obvious inhibition | ≥ 100 | – | –
COc1cc(OC)c2c(O)c3c(=O)cc(C)oc3c(-c3c(OC)cc4cc5oc(C)cc(=O)c5c(O)c4c3OC)c2c1 [Compound 6, Aurasperone A] | 34.1 (≈ 59.7 µM) | 8.52 (≈ 14.9 µM) | – | 4.26 (≈ 7.47 µM) | 17 (≈ 29.9 µM) | 289 ± 31.1 | – | 34.1 (≈ 59.7 µM) | 52.1 | – | ≥ 100 | – | –
COc1cc(OC)c2c(c1)c(-c1c(OC)cc3cc4oc(C)cc(=O)c4c(O)c3c1OC)c(O)c1c(=O)cc(C)oc12 [Compound 8, Asperpyrone C] | ≥ 100 | 17 (≈ 29.9 µM) | – | 17 (≈ 29.9 µM) | ≥ 100 | – | – | ≥ 100 | – | – | 68.2 (≈ 119 µM) | ^bn.i. | ^cn.i.
COc1cc(OC)c2c(O)c3c(c(-c4c(OC)cc5cc(O)c6c(=O)cc(C)oc6c5c4OC)c2c1)OC(C)(O)CC3=O (centres unmarked) [Compound 3, Fonsecinone C] | 17 (≈ 29 µM) | 4.26 (≈ 7.24 µM) | moderate antibacterial activities | 2.13 (≈ 3.62 µM) | 17 (≈ 29 µM) | 270 ± 9.1 | moderate antibacterial activities | 34.1 (≈ 57.9 µM) | 3 | no obvious inhibition | ≥ 100 | – | –
CN[C@H](CC(C)C)C(=O)N[C@H]1C(=O)N[C@@H](CC(N)=O)C(=O)N[C@H]2C(=O)N[C@H]3C(=O)N[C@H](C(=O)N[C@H](C(=O)O)c4cc(O)cc(O)c4-c4cc3ccc4O)[C@H](O)c3ccc(c(Cl)c3)Oc3cc2cc(c3O[C@@H]2O[C@H](CO)[C@@H](O)[C@H](O)[C@H]2O[C@H]2C[C@](C)(N)[C@H](O)[C@H](C)O2)Oc2ccc(cc2Cl)[C@H]1O [Vancomycin, reference compound] | – | – | – | – | 0.53 (≈ 0.366 µM) | – | – | 0.53 (≈ 0.366 µM) | – | – | – | – | –
COc1cc(OC)c2c(O)c3c(=O)cc(C)oc3cc2c1 [Compound 5, Rubrofusarin B] | ≥ 100 | 17 (≈ 59.5 µM) | – | 8.52 (≈ 29.8 µM) | 68.2 (≈ 238 µM) | – | – | ≥ 100 | – | – | 68.2 (≈ 238 µM) | ^bn.i. | ^cn.i.
COc1cc(OC)c2c(O)c3c(=O)cc(C)oc3c(-c3c(OC)cc4cc5c(c(O)c4c3OC)C(=O)CC(C)(O)O5)c2c1 (centres unmarked) [Compound 7, Aurasperone E] | 34.1 (≈ 57.9 µM) | 8.52 (≈ 14.5 µM) | – | 8.52 (≈ 14.5 µM) | 17 (≈ 29 µM) | 329 ± 29.7 | – | 68.2 (≈ 116 µM) | 71.8 | – | ≥ 100 | – | –
COc1cc(OC)c2c(O)c3c(c(-c4c(OC)cc5cc6oc(C)cc(=O)c6c(O)c5c4OC)c2c1)OC(C)(O)CC3=O (centres unmarked) [Compound 4, Fonsecinone B] | ≥ 100 | 17 (≈ 29 µM) | – | 17 (≈ 29 µM) | ≥ 100 | – | – | ≥ 100 | 111 | – | 34.1 (≈ 57.9 µM) | ^bn.i. | –
COc1cc(OC)c2c(c1)cc(O)c1c(=O)cc(C)oc12 [Compound 1, Flavasperone] | 68.2 (≈ 238 µM) | 8.52 (≈ 29.8 µM) | – | 8.52 (≈ 29.8 µM) | 68.2 (≈ 238 µM) | – | – | ≥ 100 | 110 | – | ≥ 100 | ^bn.i. | –
CO/N=C(\C(=O)N[C@@H]1C(=O)N2C(C(=O)O)=C(CSc3nc(=O)c(=O)[nH]n3C)CS[C@H]12)c1csc(N)n1 [Ceftriaxone, reference compound] | 2.13 (≈ 3.84 µM) | 8.52 (≈ 15.4 µM) | – | 2.13 (≈ 3.84 µM) | – | – | – | – | – | – | 2.13 (≈ 3.84 µM) | – | –
NCC[C@H](O)C(=O)N[C@@H]1C[C@H](N)[C@@H](O[C@H]2O[C@H](CN)[C@@H](O)[C@H](O)[C@H]2O)[C@H](O)[C@H]1O[C@H]1O[C@H](CO)[C@@H](O)[C@H](N)[C@H]1O [Amikacin, reference compound] | 2.13 (≈ 3.64 µM) | 4.26 (≈ 7.27 µM) | – | 2.13 (≈ 3.64 µM) | – | – | – | – | – | – | 8.52 (≈ 14.5 µM) | – | –
